Results published in US12703693B2, “Crystalline forms of N-{3-[(1S)-1-{[6-(3,4-dimethoxyphenyl)pyrazin-2-yl]amino}ethyl]phenyl}-5-methylpyridine-3-carboxamide and related products and methods” (GB002, INC., priority 2021, dated 2026).

What was measured:
Type in all cases: physicochemical
[1] = Particle size distribution (PSD) of micronized / spray dried material; conditions: for Dv10 (μm) 1 / Dv50 (μm) 1 / Dv90 (μm) 1 / SPAN1 / Dv10 (μm) 2 / Dv50 (μm) 2 / Dv90 (μm) 2 / SPAN 2: wet polished (wet milled + spray dried) Compound 1 Form A; for Dv10 (μm) 1 / Dv50 (μm) 1 / Dv90 (μm) 1 / SPAN1: PSD set 1; for Dv10 (μm) 2 / Dv50 (μm) 2 / Dv90 (μm) 2 / SPAN 2: PSD set 2
Description: Crystalline Compound 1 Form A was fed into a grinding chamber tangentially by vacuum created by the venturi system using pressurized nitrogen (venturi pressure, Pvent, above grind pressure, Pgrind). Compressed nitrogen was also used for the jet nozzles in the walls of the chamber. The feed flow rate was set and controlled automatically (by a gravimetric feeder) or manually. Once inside the milling chamber particles were accelerated by a series of perimeter jets, in a spiral movement. The compressed fluid issuing from the nozzles expands from Pgrind and imparts very high rotational speeds in the chamber. The micronizing effect occurs when the slower incoming particles and the faster particles in the spiral path collide. While centrifugal force retains the larger particles at the periphery of the milling chamber, the smaller particles exit with the exhaust gas from the center of the chamber. Five 20 g trials were performed in a 1.5″ jet mill, under varying feed rates (Ffeed,JM,) and pressures; the optimal conditions were used for a sixth larger scale 50 g trial.
Aqueous suspensions of crystalline Compound 1 Form A in water (5% w/w or 10% w/w) were processed via microfluidization with a HPH18 (M-110EH-30 Microfluidics Pilot) wet milling apparatus equipped with an auxiliary processing module (200 μm) and an interaction chamber (Z-shape, 100 μm). The unit was initiated at a given pressure for the first five cycles to perform a pre-milling of the suspension, using only the auxiliary processing module (200 μm). The interaction chamber (100 μm) was then introduced and the suspension processed at a defined pressure. The temperature was controlled, using a reactor jacket, and recorded. To address clogging of the micronization chambers (observed after ~25 cycles), the pressure was increased from 25 to 60 bar.
The material isolated from the first run 1A, was dived into three (1BI, 1BII and 1BIII); runs 2A and 3A were spray dried to produce samples 2B and 3B, respectively. […] Runs 2B and 3B were additionally characterized for specific surface area (SSA). See Table 27 (runs 1BI, 1BII and 1BIII) and Table 28 (runs 2B and 3B) for conditions and product characterization. […]
Two 250 g batches of crystalline Compound 1 Form A were each suspended in water (5 L) and wet polished in a wet milling HPH18 (M-110EH-30 Microfluidics Pilot) apparatus, equipped with an auxiliary processing module (200 μm) and an interaction chamber (Z-shape, 100 μm). The unit was initiated at 50 bar for the first five cycles to perform a pre-milling of the suspension, using only the auxiliary processing module (200 μm). The interaction chamber (100 μm) was then introduced and the suspension processed at 50 bar (increased to 60 or 70 bar if the system clogged). The temperature was maintained at 18-28° C. using a reactor jacket. The Reactor agitation speed was 280 RPM (batch 1) and 390 RPM (batch 2). The first batch was micronized for 25 cycles and particle size distribution analyzed after 5, 15 and 20 cycles; the second batch was micronized for […] and particle size distribution analyzed after 15, 20, 25 and 35 cycles.
Both batches were then spray dried (separately) using a Büchi spray dryer, using an open loop system. The unit was equipped with a two-fluid nozzle: cap and orifice diameters of 1.5 and 0.7 mm, respectively operated with nitrogen. The aspirator, blowing nitrogen, was set at 100% capacity (~40 kg/h). The suspension feed flow was set to 8 ml/min, high and the drying outlet temperature to 75±1° C. […] Total yield (both batches combined) was 267 g (53%).
Two 250 g batches (250 g and 238 g; 488 g total) of crystalline Compound 1 Form A coated with ~2% L-leucine were each suspended in water (5 L) and wet polished in a wet milling HPH18 (M-110EH-30 Microfluidics Pilot) apparatus, under the same process as described in the previous example. The first batch was micronized for 25 cycles and the second for 30 cycles. […]

[2] = Product characterization of micronized / spray dried powder (XRPD, amorphous content, water content by KF, assay and related substances, SSA); conditions: wet polished (wet milled + spray dried) Compound 1 Form A; for KF: water content
Description: The final spray dried product was characterized for assay and related substances, PSD, water content by KF and XRPD and the results shown in Table 43. The two sub-batches were blended to obtain the final product, with a total final yield was 137 g (68%), see Table 44.

[3] = Solubility in ethyl acetate and ethyl acetate+2% water (Crystal16 parallel crystallizer)
Description: The solubility of crystalline Forms A and B of Compound 1 in ethyl acetate was determined using a Crystal16® parallel crystallizer. Two heating rates were used, 1° C./min and 0.5° C./min. The suspensions were heated to 78° C. and cooled to 10° C. at 0.2° C./min and maintained for 2 h at 10° C. […] The suspensions were heated to 78° C. at 1° C./min, cooled to 10° C. at 0.2° C./min and maintained for 2 h at 10° C. FIG. 15 compares the resulting solubility curve with the pure ethyl acetate.

[4] = Sample stress, 40° C. and 75% relative humidity, XRPD; conditions: open vial, 6 days
Description: Two samples, one containing pure crystalline Form A of Compound 1 and a second containing a mixture of crystalline Forms A and B of Compound 1 were placed in an open vial at 40° C. and 75% relative humidity for 6 days and then analyzed by XRPD. The results are presented in Table 11; no changes by XRPD were observed.

[5] = wet milled aqueous suspension of Compound 1 Form A, cycles/pressure: 1A 30/60 bar, 2A 45/50 bar, 3A 30/50 bar
[6] = Compound 1 alone after wet milling, BATCH 01: 20 cycles/P = 50 bar, BATCH 02: 35 cycles/P = 70 bar

Compound | Dv10 (μm) 1 [1] | Dv50 (μm) 1 [1] | Dv90 (μm) 1 [1] | SPAN1 [1] | Dv10 (μm) 2 [1] | Dv50 (μm) 2 [1] | Dv90 (μm) 2 [1] | SPAN 2 [1] | KF [2] | Amorphous content [2] | Assay [2] | Impurities [2] | XRPD [2] | further results
COc1ccc(-c2cncc(N[C@@H](C)c3cccc(NC(=O)c4cncc(C)c4)c3)n2)cc1OC [Compound 1BIII] | 1.7 μm | 3.4 μm | 6.6 μm | 1.4 | 1.4 μm | 3.1 μm | 6.6 μm | 1.7 | 0.1 % w/w | <10 % w/w | 99.40 % LC | 1.10 % area | Crystalline | –
COc1ccc(-c2cncc(N[C@@H](C)c3cccc(NC(=O)c4cncc(C)c4)c3)n2)cc1OC [Run 1A] | – | – | – | – | – | – | – | – | – | – | – | – | – | Dv10 [1, 5]: 1.7 μm; Dv50 [1, 5]: 3.2 μm; Dv90 [1, 5]: 6 μm
COc1ccc(-c2cncc(N[C@@H](C)c3cccc(NC(=O)c4cncc(C)c4)c3)n2)cc1OC [Compound 1BI] | 1.8 μm | 3.5 μm | 6.6 μm | 1.4 | 1.5 μm | 3.3 μm | 6.7 μm | 1.6 | 0.5 % w/w | <10 % w/w | 98.9 % LC | 1.1 % area | Crystalline | –
COc1ccc(-c2cncc(N[C@@H](C)c3cccc(NC(=O)c4cncc(C)c4)c3)n2)cc1OC [Form B, N-{3-[(1S)-1-{[6-(3,4-dimethoxyphenyl)pyrazin-2-yl]amino}ethyl]phenyl}-5-methylpyridine-3-carboxamide] | – | – | – | – | – | – | – | – | – | – | – | – | – | solubility compared with the other crystalline form ([3]; ethyl acetate and ethyl acetate+2% water (both systems)): slightly less soluble; solubility in ethyl acetate+2% water compared to pure ethyl acetate ([3]; presence of water (2%)): significantly more soluble
COc1ccc(-c2cncc(N[C@@H](C)c3cccc(NC(=O)c4cncc(C)c4)c3)n2)cc1OC [Compound 1BII] | 1.7 μm | 3.3 μm | 6.3 μm | 1.4 | 1.3 μm | 3 μm | 6.1 μm | 1.6 | 0.2 % w/w | <10 % w/w | 102.0 % LC | 0.9 % area | Crystalline | –
COc1ccc(-c2cncc(N[C@@H](C)c3cccc(NC(=O)c4cncc(C)c4)c3)n2)cc1OC [BATCH 02] | – | – | – | – | – | – | – | – | – | – | – | – | – | Dv10 [1, 6]: 0.3 μm; Dv50 [1, 6]: 0.8 μm; Dv90 [1, 6]: 3.4 μm
COc1ccc(-c2cncc(N[C@@H](C)c3cccc(NC(=O)c4cncc(C)c4)c3)n2)cc1OC [Form A + form B (minor)] | – | – | – | – | – | – | – | – | – | – | – | – | – | XRPD observation after stress conditions [4]: No change - Form A +
